Experimental data taken from patent EP1798220A1, “Dibenzene derivatives as calcium channel blockers” (Neuropharma S.A., priority 2005, dated 2007).

System: VDCC
Test: VDCC inhibition: calcium entry (Fluo-4 fluorescence) in SH-SY5Y cells after depolarization with 60 mM KCl
Format: cell-based, human
Details: 10 min exposure, 60 mM KCl depolarization
Protocol: This assay is aimed to determine the VDCC blocker activity of compounds; it is performed using SH-SY5Y neuroblastoma cells. SH-SY5Y cells were plated at 5x10^5 cells per well into Black / Clear Bottom 96-well culture plate, 48 hours before treatment. Cells were loaded with Fluo-4, 5 µM and pluronic acid, 0.1%, for 30 min at 37°C, 5%CO2, following a incubation of 15 min at RT in Krebs-HEPES solution. Immediately cells are exposed to the samples at different concentrations for 10 min. The compounds were tested at […], depending on potency. After the treatment, calcium entry is measured as fluorescence in a Fluostar Optima plate reader (BMG) in response to depolarization with 60 mM KCl. The excitation wavelength was 485 nm, and that of emission 520 nm.

Structure (SMILES) | % of calcium entry inhibition (compound at 10^-5 (M)) [%] | % of calcium entry inhibition (compound at 10^-6 (M)) | % of calcium entry inhibition (compound at 10^-7 (M)) [%]
COCOc1cc(OC)ccc1C(=O)NCCCCCCNC(=O)c1ccc(OC)cc1OCOC [Compound 3] | 37.5 ± 7 | 6,6 ± 2% | –
COCOc1cc(OC)ccc1C(=O)NCCCOc1c(Br)cc(CCNC(=O)c2ccc(OC)cc2OCOC)cc1Br [Compound 4] | 87.3 ± 5 | 27.3 ± 5% | 6 ± 0
COc1cc(O)c(C(=O)NCCCCCNC(=O)c2cc(Br)c(OC)cc2O)cc1Br [Compound 5] | 21.8 ± 5 | – | –
